# Test results reported in patent publication US20130190407A1, “CALCIUM RECEPTOR-ACTIVE MOLECULES” (NPS Pharmaceuticals, Inc., priority 1991, published 2013).
# Experiments:
# Type in all cases: cell-based
# Bovine parathyroid cells = conditions: 10 μM isoproterenol 15 min; no pertussis toxin; 2.0 mM Ca2+, 200 μM spermine, 30 μM neomycin B, 2 μg/ml protamine; mean ± SEM
# Description: This section describes measuring cyclic AMP levels. Cells were incubated as above for PTH secretion studies and at the end of the incubation, a 0.15-ml sample was taken and transferred to 0.85 ml of hot (70° C.) water and heated at this temperature for 5-10 minutes. The tubes were subsequently frozen and thawed several times and the cellular debris sedimented by centrifugation. Portions of the supernatant were acetylated and cyclic AMP concentrations determined by radioimmunoassay.
# Bovine parathyroid cells were cultured for 16 hours with or without 100 ng/ml pertussis toxin. […] Each value is the mean±SEM of three experiments.
# [1] = molecular target: T1, parathyroid cell calcium receptor (Homo sapiens, UniProt P41180); assay: [Ca2+]i (fura-2) in human parathyroid cells; conditions: 20 μM
# T1 construct: Dissociated parathyroid cells were prepared from a parathyroid adenoma obtained by surgery; endogenous in cells; host or cells: dissociated primary human parathyroid cells from patients with primary or uremic hyperparathyroidism
# T1 sequence (P41180 20-1078): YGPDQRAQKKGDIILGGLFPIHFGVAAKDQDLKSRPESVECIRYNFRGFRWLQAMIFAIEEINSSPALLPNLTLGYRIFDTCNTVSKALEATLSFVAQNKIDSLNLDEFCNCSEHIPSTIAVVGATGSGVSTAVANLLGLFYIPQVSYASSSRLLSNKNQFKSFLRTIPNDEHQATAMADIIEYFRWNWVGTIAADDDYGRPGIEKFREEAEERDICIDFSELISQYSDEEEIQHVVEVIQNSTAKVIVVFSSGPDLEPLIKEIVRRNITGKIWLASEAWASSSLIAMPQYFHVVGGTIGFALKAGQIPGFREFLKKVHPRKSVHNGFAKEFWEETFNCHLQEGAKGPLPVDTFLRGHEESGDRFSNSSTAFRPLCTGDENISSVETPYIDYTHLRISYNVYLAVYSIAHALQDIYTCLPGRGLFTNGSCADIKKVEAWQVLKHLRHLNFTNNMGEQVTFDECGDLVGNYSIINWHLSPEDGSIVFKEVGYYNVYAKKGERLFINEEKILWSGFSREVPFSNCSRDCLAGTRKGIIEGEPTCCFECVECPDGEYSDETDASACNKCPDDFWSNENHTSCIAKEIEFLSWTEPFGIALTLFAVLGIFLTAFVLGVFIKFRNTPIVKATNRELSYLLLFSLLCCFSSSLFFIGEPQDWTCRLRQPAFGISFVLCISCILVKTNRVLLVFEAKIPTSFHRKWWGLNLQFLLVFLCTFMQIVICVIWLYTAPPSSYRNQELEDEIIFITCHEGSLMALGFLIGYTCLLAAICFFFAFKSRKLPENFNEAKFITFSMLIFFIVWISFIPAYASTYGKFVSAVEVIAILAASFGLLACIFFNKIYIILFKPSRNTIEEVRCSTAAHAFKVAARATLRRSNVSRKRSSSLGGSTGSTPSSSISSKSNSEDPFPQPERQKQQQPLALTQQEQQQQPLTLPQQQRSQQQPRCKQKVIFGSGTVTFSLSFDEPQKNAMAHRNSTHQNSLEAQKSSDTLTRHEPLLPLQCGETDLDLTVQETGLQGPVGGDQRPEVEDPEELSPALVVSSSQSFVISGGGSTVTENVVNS
# Description: This section describes procedures used to obtain and treat parathyroid cells from calves and humans. […] Human parathyroid glands, were obtained from patients undergoing surgical removal of parathyroid tissue for primary or uremic hyperparathyroidism (uremic HPT), and were treated similarly to bovine tissue.
# The cells were then pelleted, resuspended in the same buffer, but lacking the ester, and incubated a further 15 minutes at 37° C. The cells were subsequently washed twice with PCB containing 0.5 mM CaCl2 and 0.5% BSA and maintained at room temperature (about 20° C.) Immediately before use, the cells were diluted five-fold with prewarmed 0.5 mM CaCl2-PCB to obtain a final BSA concentration of 0.1%. The concentration of cells in the cuvette used for fluorescence recording was 1−2×10^6/ml.
# The fluorescence of indicator-loaded cells was measured at 37° C. in a spectrofluorimeter (Biomedical Instrumentation Group, University of Pennsylvania, Philadelphia, Pa.) equipped with a thermostated cuvette holder and magnetic stirrer using excitation and emission wavelengths of 340 and 510 nm, respectively. […] To correct the calibration for dye leakage, cells were placed in the cuvette and stirred at 37° C. for 2-3 minutes. The cell suspension was then removed, the cells pelleted, and the supernatant returned to a clean cuvette. […] This estimate was subtracted from the apparent Fmin.
# calcium receptor = molecular target: T2, calcium receptor (Bos taurus, UniProt P35384); assay: 45Ca2+ release from Xenopus oocytes injected with bovine parathyroid mRNA; conditions: 10 mM for 20 min, compared to mock challenge with buffer
# T2 construct: Whole pieces of gland were used to prepare mRNA that directs the expression of the calcium receptor in Xenopus oocytes; expressed in transfected cells; host or cells: Xenopus laevis oocytes injected with total poly(A)+ mRNA from bovine parathyroid glands
# T2 sequence (P35384 20-1085): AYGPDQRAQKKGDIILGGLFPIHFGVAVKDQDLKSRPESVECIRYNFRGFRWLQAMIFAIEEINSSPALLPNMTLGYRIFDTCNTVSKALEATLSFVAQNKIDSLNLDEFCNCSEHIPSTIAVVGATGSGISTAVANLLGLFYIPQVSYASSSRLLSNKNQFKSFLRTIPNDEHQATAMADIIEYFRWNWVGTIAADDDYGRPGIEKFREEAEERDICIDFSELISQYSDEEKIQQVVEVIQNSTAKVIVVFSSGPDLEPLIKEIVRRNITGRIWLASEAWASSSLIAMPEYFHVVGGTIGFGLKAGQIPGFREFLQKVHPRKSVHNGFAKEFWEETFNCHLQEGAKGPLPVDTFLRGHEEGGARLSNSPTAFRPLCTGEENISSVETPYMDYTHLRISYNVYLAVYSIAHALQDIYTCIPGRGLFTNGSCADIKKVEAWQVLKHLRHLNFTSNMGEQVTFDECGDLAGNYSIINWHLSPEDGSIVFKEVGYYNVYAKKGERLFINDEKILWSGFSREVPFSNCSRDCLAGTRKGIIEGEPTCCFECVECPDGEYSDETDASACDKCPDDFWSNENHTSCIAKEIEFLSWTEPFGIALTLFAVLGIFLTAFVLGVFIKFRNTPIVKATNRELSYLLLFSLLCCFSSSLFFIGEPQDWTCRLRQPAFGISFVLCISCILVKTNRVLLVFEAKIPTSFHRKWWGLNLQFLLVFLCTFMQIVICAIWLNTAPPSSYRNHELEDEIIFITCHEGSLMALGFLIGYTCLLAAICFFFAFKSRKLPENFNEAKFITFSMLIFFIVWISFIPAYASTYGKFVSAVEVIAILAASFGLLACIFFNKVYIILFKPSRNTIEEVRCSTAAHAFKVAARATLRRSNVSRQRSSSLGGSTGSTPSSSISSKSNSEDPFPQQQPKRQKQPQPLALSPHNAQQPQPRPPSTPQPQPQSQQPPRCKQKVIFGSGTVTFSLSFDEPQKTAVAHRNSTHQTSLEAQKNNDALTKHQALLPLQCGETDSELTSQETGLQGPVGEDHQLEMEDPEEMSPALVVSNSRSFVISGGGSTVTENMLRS
# Text: For example, we have been able to detect calcium receptor expression in oocytes by measuring ^45Ca^2+ mobilization. […] Prior to being stimulated, oocytes were loaded with ^45Ca^2+. […] The assay is sensitive enough for use in cloning the calcium receptor, and has the advantage of a higher throughput than the electrophysiological measurement of Ca^2+-activated Cl^− current.
smiles,measurement,setting,value
"NC[C@@H]1O[C@H](O[C@H]2[C@@H](O)[C@H](O[C@@H]3[C@@H](O)[C@H](N)C[C@H](N)[C@H]3O[C@H]3O[C@H](CN)[C@@H](O)[C@H](O)[C@H]3N)O[C@@H]2CO)[C@H](N)[C@@H](O)[C@@H]1O [Neomycin B, neomycin B]","cyclic AMP (% of control), control",Bovine parathyroid cells,28 ± 8 % of control
same,increase in [Ca2+]i,[1],large increase
same,increase in 45Ca2+ release,calcium receptor,76%
